What all share (format): cell-based
Assay [1] has as its system SCC-9 cells. The assay can be described thus: Cellular proliferation assay (CellTiter-Glo, day 5). Conditions: Homo sapiens, read-out: The compound of Formula I IC50, compound of Formula I alone. How it is done: (§1) The cell lines used in the study were obtained from ATCC (CAL 27 #CRL-2095, SCC-15 #CRL-1623, SCC-25 #CRL-1628, SCC-4 #CRL-1624 and SCC-9 #CRL-1629). The cell line, CAL 27 was cultured in DMEM (Gib co #). SCC-4, SCC-15, SCC-25, SCC-9 cell lines was cultured in a 1:1 mixture of DMEM and Ham's F12 medium containing 1.2 g/L sodium bicarbonate, 2.5 mM L-glutamine, 15 mM HEPES and 0.5 mM sodium pyruvate supplemented with 400 ng/ml hydrocortisone, 90%; fetal bovine serum, 10% (Hyclone #SH-30071.03) and Penicillin/Streptomycin (Thermo Fisher #15070-063). The cells were maintained at 37° C./5% CO2. Cells were washed in ice cold PBS (Thermo Fisher Scientific #10010-023) and lysed in RIPA Lysis and Extraction Buffer (Thermo Fisher Scientific #89900) supplemented with Halt Phosphatase and Protease Inhibitor (Thermo Fisher Scientific #78445). The membrane was blocked for non-specific proteins by Bovine Serum Albumin BSA (Cell Signaling Tech #9998). Antibodies for immunoblotting were as follows: phospho-p44/42 ERK1/2 (Cell Signaling Tech #4370), ERK2 antibody (Santa Cruz #sc-1647), anti-mouse IgG HRP-linked antibody (Cell Signaling Tech #7076), and anti-rabbit IgG HRP-linked antibody (Cell Signaling Tech #7074).
(§2) […] HPV-negative head and neck squamous cancer cell lines, CAL 27, SCC-4, SCC-9, SCC-15 and SCC-25 were split onto 96 well plates.

In assay [2] the test system is CAL 27 cells. The description is as above. Conditions: Homo sapiens, read-out: The compound of Formula I IC50, compound of Formula I alone. How it is done:
as §1, §2

Assay [3] has as its system SCC-15 cells. Described as above. Conditions: Homo sapiens, read-out: The compound of Formula I IC50, compound of Formula I alone. How it is done: as §1, §2
Assay [4] concerns SCC-25 cells. The assay is described as above. Conditions: read-out: The compound of Formula I IC50, compound of Formula I alone. How it is done:
as §1, §2

Assay [5] concerns ERK1/2 phosphorylation. The assay can be described thus: Western blotting of phosphorylated ERK1/2 in CAL 27 cells. The note with it: HPV-negative CAL 27 cells; 4 hours of treatment; immunoblot, bands normalized by total ERK. How it is done:
as §1, with “The membrane was blocked for non-specific proteins by Bovine Serum Albumin BSA (Cell Signaling Tech #9998). Antibodies for immunoblotting were as follows: phospho-p44/42 ERK1/2 (Cell Signaling Tech #4370), ERK2 antibody (Santa Cruz #sc-1647), anti-mouse IgG HRP-linked antibody (Cell Signaling Tech #7076), and anti-rabbit IgG HRP-linked antibody (Cell Signaling Tech #7074).” left out
Western blotting: Cells were lysed on ice for 10 minutes with Thermo Fisher RIPA lysis buffer with protease and phosphatase inhibitors. […] The supernatant was transferred to pre-chilled microcentrifuge tube and protein concentration of the lysate was measured using BCA method. […]
After 4 hours of treatment, cells were lysed and immunoblotted for phosphorylated ERK1/2. […] The phosphorylated ERK1/2 bands were quantified by using Bio-Rad Image Lab software and normalized by total ERK.
On the technique in general: A western blot detects proteins with antibodies after separation by electrophoresis.

In general, IC50 refers to the concentration needed to halve the response being measured.

“Also recorded” adds a separate entry of the source.

Consider `COCOC[C@H]1C[C@H]2COc3c(Sc4cnc(N5CCC6(CC5)CO[C@@H](C)[C@H]6N)c(CO)n4)ccnc3N2C1` [The compound of Formula I], for which the IC50 in assay [1] is 161 nM; in assay [2] it was 112 nM; in assay [3], 1410 nM; in assay [4] it was 8050 nM. Besides, the “inhibition of ERK1/2 phosphorylation relative to DMSO treated control cells” value in assay [5] is listed as “approximately 50%; also recorded: about 50%”.
